Results published in ChEMBL document CHEMBL3734673, “Potent chemical chaperone compounds for GM1-gangliosidosis: N-substituted (+)-conduramine F-4 derivatives” (Medchemcomm, 2015).
Residue numbers refer to the chain shown, from its start. Active and inactive are the calls of the source. The calls are words filed in the database; no cut-off is given here.

Experiments:
[1] = Cytotoxicity against human fibroblasts at 200 uM by LDH assay; assay type: cell-based; conditions: fibroblast
[2] = Inhibition of human alpha-galactosidase isolated from human fibroblasts incubated for 30 mins using […] analysis
[3] = molecular target: T1, Beta-galactosidase (Bos taurus) (UniProt Q58D55); assay: Inhibition of bovine liver beta-galactosidase using p-nitrophenyl-beta-D-galactopyranoside as substrate preincubated with substrate followed by protein addition measured after 30 mins by microplate reader analysis
T1 sequence (whole entry): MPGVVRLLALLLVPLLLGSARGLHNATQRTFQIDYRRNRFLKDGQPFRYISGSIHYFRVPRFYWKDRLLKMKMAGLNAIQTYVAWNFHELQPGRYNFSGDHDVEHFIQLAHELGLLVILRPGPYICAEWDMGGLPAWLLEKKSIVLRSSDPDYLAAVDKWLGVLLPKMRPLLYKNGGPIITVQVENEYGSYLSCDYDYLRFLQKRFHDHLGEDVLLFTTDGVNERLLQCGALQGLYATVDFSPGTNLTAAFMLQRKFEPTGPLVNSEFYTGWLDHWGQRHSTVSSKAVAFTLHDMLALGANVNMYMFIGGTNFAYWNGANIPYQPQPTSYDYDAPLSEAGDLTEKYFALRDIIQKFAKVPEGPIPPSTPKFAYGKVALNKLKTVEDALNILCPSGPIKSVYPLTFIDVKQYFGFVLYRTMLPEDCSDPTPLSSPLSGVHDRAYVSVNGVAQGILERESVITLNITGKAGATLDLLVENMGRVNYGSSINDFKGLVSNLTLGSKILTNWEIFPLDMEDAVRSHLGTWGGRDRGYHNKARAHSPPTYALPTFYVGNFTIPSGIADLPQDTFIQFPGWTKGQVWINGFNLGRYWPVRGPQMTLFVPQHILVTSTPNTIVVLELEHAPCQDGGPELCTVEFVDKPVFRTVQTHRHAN

[4] = tested on: T2, Beta-galactosidase (Homo sapiens), P16278 [R201C]; assay: Activation of human beta-galactosidase R201C mutant expressed in mouse fibroblasts using 4-methylumbelliferone -conugated beta-D-galactoside as substrate at 20 uM preincubated for 48 hrs followed by substrate addition measured after 30 mins by fluorescence analysis relative to control
T2 sequence (whole entry): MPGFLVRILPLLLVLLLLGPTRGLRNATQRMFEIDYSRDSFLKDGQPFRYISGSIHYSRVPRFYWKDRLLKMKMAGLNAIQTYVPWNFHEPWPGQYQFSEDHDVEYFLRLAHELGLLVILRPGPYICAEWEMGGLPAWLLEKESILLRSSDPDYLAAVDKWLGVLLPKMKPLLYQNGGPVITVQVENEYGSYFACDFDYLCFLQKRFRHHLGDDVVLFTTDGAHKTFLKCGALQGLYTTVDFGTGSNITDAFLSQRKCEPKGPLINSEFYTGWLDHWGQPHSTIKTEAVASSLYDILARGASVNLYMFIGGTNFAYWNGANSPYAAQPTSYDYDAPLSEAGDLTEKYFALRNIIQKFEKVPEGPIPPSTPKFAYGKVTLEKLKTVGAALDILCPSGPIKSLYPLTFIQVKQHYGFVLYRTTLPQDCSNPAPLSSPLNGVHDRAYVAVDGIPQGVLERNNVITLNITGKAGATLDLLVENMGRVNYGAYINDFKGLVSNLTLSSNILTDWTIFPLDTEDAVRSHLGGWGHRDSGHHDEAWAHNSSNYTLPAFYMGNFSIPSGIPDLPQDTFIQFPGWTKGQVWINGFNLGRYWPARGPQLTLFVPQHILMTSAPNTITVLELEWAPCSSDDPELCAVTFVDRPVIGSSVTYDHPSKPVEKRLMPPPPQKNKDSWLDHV

Prunus dulcis = assay: Inhibition of almond beta-glucosidase using p-nitrophenyl-beta-D-glucopyranoside as substrate preincubated with substrate followed by protein addition measured after 30 mins by microplate reader analysis
[5] = molecular target: T3, Lysosomal acid glucosylceramidase (Homo sapiens, UniProt P04062); assay: Inhibition of human beta-glucosidase isolated from human fibroblasts incubated for 30 mins using […] analysis
T3 sequence (P04062 whole entry): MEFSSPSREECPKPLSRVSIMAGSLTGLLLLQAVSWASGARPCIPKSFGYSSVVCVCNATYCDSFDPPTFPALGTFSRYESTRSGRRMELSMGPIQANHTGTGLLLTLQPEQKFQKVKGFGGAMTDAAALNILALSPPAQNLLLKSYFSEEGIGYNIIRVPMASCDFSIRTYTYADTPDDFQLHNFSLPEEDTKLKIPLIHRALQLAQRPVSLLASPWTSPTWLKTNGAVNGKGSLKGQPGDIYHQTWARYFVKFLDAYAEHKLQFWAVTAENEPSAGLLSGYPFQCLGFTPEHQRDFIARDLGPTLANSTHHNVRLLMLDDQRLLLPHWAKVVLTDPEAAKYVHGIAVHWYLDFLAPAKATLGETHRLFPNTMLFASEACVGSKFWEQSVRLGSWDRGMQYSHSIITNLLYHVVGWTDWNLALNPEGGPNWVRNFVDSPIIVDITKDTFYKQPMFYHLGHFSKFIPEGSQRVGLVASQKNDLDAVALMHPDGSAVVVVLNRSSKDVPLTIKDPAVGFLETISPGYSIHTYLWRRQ

Beta-galactosidase = molecular target: T4, Beta-galactosidase (Homo sapiens, UniProt P16278); assay: Inhibition of human beta-galactosidase expressed in mouse fibroblasts using 4-methylumbelliferone -conugated beta-D-galactoside as substrate incubated for 30 mins at pH 4.5 followed by substrate addition by fluorescence analysis
T4 sequence (P16278 whole entry): T2 sequence (whole entry) with C201R

[6] = tested on: T2, Beta-galactosidase (Homo sapiens), P16278 [R201C]; assay: Activation of human beta-galactosidase R201C mutant expressed in mouse fibroblasts using 4-methylumbelliferone -conugated beta-D-galactoside as substrate at 2 uM preincubated for 48 hrs followed by substrate addition measured after 30 mins by fluorescence analysis relative to control
[7] = Cytotoxicity against human fibroblasts at 20 uM by LDH assay; assay type: cell-based; conditions: fibroblast
[8] = tested on: T2, Beta-galactosidase (Homo sapiens), P16278 [R201C]; assay: Activation of human beta-galactosidase R201C mutant expressed in mouse fibroblasts using 4-methylumbelliferone -conugated beta-D-galactoside as substrate at 0.2 uM preincubated for 48 hrs followed by substrate addition measured after 30 mins by fluorescence analysis relative to control

| SMILES | Activity [1] [%] | IC50 [2] [µM] | inhibition [3] | fold change (FC) [4] | inhibition (Prunus dulcis) | IC50 [5] [µM] | IC50 (Beta-galactosidase) [µM] | fold change (FC) [6] | Activity [7] [%] | Activity [6] | Activity [8] |
| --- | --- | --- | --- | --- | --- | --- | --- | --- | --- | --- | --- |
| CC(C)CN[C@@H]1C=C[C@H](O)[C@H](O)[C@H]1O.Cl | < 10 | > 1000 | Active | 4.6 | Active | > 1000 | 41 | – | – | – | – |
| CCCCCN[C@@H]1C=C[C@H](O)[C@H](O)[C@H]1O.Cl | < 10 | > 1000 | Active | 4 | Active | > 1000 | 19 | – | – | – | – |
| CCCCCCCCN[C@@H]1C=C(CO)[C@H](O)[C@H](O)[C@H]1O.Cl | 7.5 | > 1000 | – | 3.6 | – | > 1000 | 1.7 | 4.6 | 1.1 | – | – |
| CCCCCCCCN[C@@H]1C=C[C@H](O)[C@H](O)[C@H]1O.Cl | 25 | > 1000 | Active | 5.4 | Active | > 1000 | 120 | – | – | Active | Active |
| CCCCCCCCN[C@@H]1C=C(C)[C@H](O)[C@H](O)[C@H]1O | – | > 1000 | – | 5.2 | – | > 1000 | 46 | – | – | Active | Active |
| Cl.OCCCN[C@@H]1C=C[C@H](O)[C@H](O)[C@H]1O | < 10 | > 1000 | Active | 0.9 | Active | > 1000 | > 1000 | – | – | – | – |
| Cl.O[C@@H]1[C@@H](O)[C@H](NCCc2ccccc2)C=C[C@@H]1O | < 10 | > 1000 | Active | 4.2 | Active | > 1000 | 86 | – | – | – | – |
| Cl.O[C@@H]1[C@@H](O)[C@H](NCc2ccccc2)C=C[C@@H]1O | < 10 | > 1000 | Active | 1.5 | Active | > 1000 | 180 | – | – | – | – |
| CCCCCCCCCCN[C@@H]1C=C[C@H](O)[C@H](O)[C@H]1O.Cl | 54 | > 1000 | Active | 1.6 | Active | > 1000 | 43 | – | 24 | – | – |
| Cl.O[C@@H]1[C@@H](O)[C@H](NCC2CCCCC2)C=C[C@@H]1O | 3.8 | > 1000 | Active | 8.5 | Active | > 1000 | 60 | – | 0.7 | – | – |
| CCC(CC)CN[C@@H]1C=C[C@H](O)[C@H](O)[C@H]1O.Cl | < 10 | > 1000 | Active | 7.4 | Active | > 1000 | 15 | – | – | – | – |
| CCC(CC)N[C@@H]1C=C[C@H](O)[C@H](O)[C@H]1O.Cl | < 10 | > 1000 | Active | 1.2 | Active | > 1000 | > 1000 | – | – | – | – |
| CCCCN[C@@H]1C=C[C@H](O)[C@H](O)[C@H]1O.Cl | < 10 | > 1000 | Active | 2 | Active | > 1000 | 50 | – | – | – | – |
| CC(C)CCN[C@@H]1C=C[C@H](O)[C@H](O)[C@H]1O.Cl | < 10 | > 1000 | Active | 4.6 | Active | > 1000 | 28 | – | – | – | – |
| Cl.O[C@@H]1[C@@H](O)[C@H](NC2CCCCC2)C=C[C@@H]1O | < 10 | > 1000 | Active | 1.4 | Active | > 1000 | 490 | – | – | – | – |
| CCCCCCN[C@@H]1C=C[C@H](O)[C@H](O)[C@H]1O.Cl | < 10 | > 1000 | Active | 4.6 | Active | > 1000 | 56 | – | – | – | – |
